Measured values: patent US12649751B2 (Arcus Biosciences, Inc., priority 2022, dated 2026)
Read-outs that look alike come from different tables or passages of the source.

Columns and labels:
[1] = tested on: p-SLP-76 (Ser376) in Jurkat cells; assay: pSLP76 Cellular Assay (AlphaLISA SureFire Ultra p-SLP-76 (Ser376), anti-CD3 activated Jurkat cells); type: cell-based; details: read-out: Cellular Potency
Outline: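 Read-out is AlphaLISA p-SLP-76 (Ser376) signal at 570 nm in Jurkat lysates, with IC50 fitted by 4-parameter logistic. Cells were starved overnight, exposed 1 h at 37 °C to 22 twofold compound dilutions in HBSS, then activated 45 min with anti-CD3 (0.025 mg/ml stock added).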

HPK1 = HPK1 (Homo sapiens, UniProt Q92918); assay: HPK1 Biochemical Assay (ADP-Glo luminescence; low ATP 10 μM or high ATP 200 μM)
[2] = HPK1 ADP-Glo assay, low ATP (10 μM ATP, 2 nM HPK1), read-out: Biochemical Potency (low ATP)
[3] = Homo sapiens, pSLP76 (Ser376) AlphaLISA, anti-CD3 activated Jurkat cells
[4] = HPK1 ADP-Glo assay, high ATP (200 μM ATP, 5 nM HPK1), read-out: Biochemical Potency (high ATP)
[5] = Homo sapiens, Jurkat cells, anti-CD3 stimulation, pSLP76
[6] = 2 nM HPK1, 10 μM ATP, read-out: Biochemical Potency (low ATP)

Sequence of HPK1 (Q92918 whole entry, species assumed): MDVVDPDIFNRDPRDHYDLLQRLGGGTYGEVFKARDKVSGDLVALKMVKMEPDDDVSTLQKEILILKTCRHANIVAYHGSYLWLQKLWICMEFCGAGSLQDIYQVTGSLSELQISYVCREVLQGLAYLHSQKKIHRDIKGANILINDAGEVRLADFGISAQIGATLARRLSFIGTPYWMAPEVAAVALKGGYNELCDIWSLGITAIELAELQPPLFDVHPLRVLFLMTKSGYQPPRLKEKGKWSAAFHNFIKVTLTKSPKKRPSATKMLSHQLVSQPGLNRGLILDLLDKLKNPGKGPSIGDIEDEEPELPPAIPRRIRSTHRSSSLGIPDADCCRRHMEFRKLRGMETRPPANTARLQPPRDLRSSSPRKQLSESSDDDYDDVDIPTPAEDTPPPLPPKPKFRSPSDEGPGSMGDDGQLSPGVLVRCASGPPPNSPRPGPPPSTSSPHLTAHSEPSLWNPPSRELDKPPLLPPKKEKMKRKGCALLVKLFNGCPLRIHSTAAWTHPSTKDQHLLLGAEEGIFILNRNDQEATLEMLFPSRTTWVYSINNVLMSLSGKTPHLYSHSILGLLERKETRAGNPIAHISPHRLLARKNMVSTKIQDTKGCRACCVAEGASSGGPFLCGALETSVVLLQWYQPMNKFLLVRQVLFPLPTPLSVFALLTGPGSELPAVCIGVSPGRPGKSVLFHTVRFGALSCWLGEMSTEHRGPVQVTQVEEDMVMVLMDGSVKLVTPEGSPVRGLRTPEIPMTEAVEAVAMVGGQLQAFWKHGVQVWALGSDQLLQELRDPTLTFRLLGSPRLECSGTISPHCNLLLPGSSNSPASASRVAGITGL

SMILES	IC50 [1, 3] [µM]	IC50 (HPK1; [4]) [µM]	also measured
CN1C[C@@H]2C[C@H]1CN2c1nccc(Nc2cc3nc(-c4ccnc(N5CC[C@@H](O)C5)c4)sc3cn2)n1 [Example 464]	–	–	IC50 ([1]; pSLP76 (Ser376) AlphaLISA, anti-CD3 activated Jurkat cells): 0.1 to 1 µM; IC50 (HPK1; [2]): < 0.1 µM
CCN1C[C@@H]2C[C@H]1CN2c1nc(C)cc(Nc2cc3nc(-c4cccc(C(=O)N5CCC[C@@H]5C)c4)sc3cn2)n1 [Example 526]	< 0.1	< 0.1	–
Cc1cccnc1-c1nc2cc(Nc3ccc([C@@H]4CCOC4)c(CN4CCCC4)n3)ncc2s1 (single isomer, unassigned) [Example 259, N-[2-(3-Methylpyridin-2-yl)-[1,3]thiazolo[5,4-c]pyridin-6-yl]-5-[(3R or 3S)-oxolan-3-yl]-6-[(pyrrolidin-1-yl)methyl]pyridin-2-amine]	–	–	IC50 [1, 5]: 0.1 to 1 µM; IC50 (HPK1; [6]): < 0.1 µM
Cc1cc(Nc2cc3nc(-c4ncccc4C)sc3cn2)nc(N2C[C@@H]3C[C@H]2CN3C)n1 [Example 160, 6-Methyl-2-[(1S,4S)-5-methyl-2,5-diazabicyclo[2.2.1]heptan-2-yl]-N-[2-(3-methylpyridin-2-yl)-[1,3]thiazolo[5,4-c]pyridin-6-yl]pyrimidin-4-amine]	–	–	IC50 [1, 5]: < 0.1 µM; IC50 (HPK1; [6]): < 0.1 µM
Cc1cccnc1-c1nc2cc(Nc3ccc(C)c(N4C[C@@H]5C[C@H]4CN5C)n3)ncc2s1 [Example 101, 5-Methyl-6-[(1S,4S)-5-methyl-2,5-diazabicyclo[2.2.1]heptan-2-yl]-N-[2-(3-methylpyridin-2-yl)-[1,3]thiazolo[5,4-c]pyridin-6-yl]pyridin-2-amine]	–	–	IC50 [1, 5]: 0.1 to 1 µM; IC50 (HPK1; [6]): < 0.1 µM
Cc1ccnn1-c1nc2cc(Nc3ccc(N4CCC(F)(F)C4)c(C(C)(C)N)n3)ncc2s1 [Example 273, 6-(2-Aminopropan-2-yl)-5-(3,3-difluoropyrrolidin-1-yl)-N-[2-(5-methyl-1H-pyrazol-1-yl)-[1,3]thiazolo[5,4-c]pyridin-6-yl]pyridin-2-amine]	–	–	IC50 [1, 5]: 0.1 to 1 µM; IC50 (HPK1; [6]): < 0.1 µM
CCN1C[C@@H]2C[C@H]1CN2c1nc(C)cc(Nc2cc3nc(-c4cccc(C(=O)N[C@@H](C)C5CC5)c4)sc3cn2)n1 [Example 525]	< 0.1	< 0.1	–
CCN1C[C@@H]2C[C@H]1CN2c1nc(C)cc(Nc2cc3nc(-c4cc(Cl)cc(C(=O)N(C)C)c4)sc3cn2)n1 [Example 519]	0.1 to 1	< 0.1	–
CCN1C[C@@H]2C[C@H]1CN2c1nc(C)cc(Nc2cc3nc(-c4cccc(C(=O)N5CCCC5(C)C)c4)sc3cn2)n1 [Example 520]	< 0.1	< 0.1	–
Cc1cc(C(=O)N(C)C)cc(-c2nc3cc(Nc4cc(C)nc(N5C[C@@H]6C[C@H]5CN6CCO)n4)ncc3s2)c1 [Example 562]	< 0.1	< 0.1	–
Cc1cccc(F)c1-c1nc2cc(Nc3ccc(N4CCC(O)CC4)c(CN(C)C)n3)ncc2s1 [Example 18, 1-{2-[(Dimethylamino)methyl]-6-{[2-(2-fluoro-6-methylphenyl)-[1,3]thiazolo[5,4-c]pyridin-6-yl]amino}pyridin-3-yl}piperidin-4-ol]	–	–	IC50 [1, 5]: 0.1 to 1 µM; IC50 (HPK1; [6]): < 0.1 µM
Cc1cc(Nc2cc3nc(-c4cnn(CC5CC5(F)F)c4)sc3cn2)nc(N2C[C@@H]3C[C@H]2CN3C)n1 (some centres unmarked) [Example 380]	1 to 5	< 0.1	–
Cc1cccnc1-c1nc2cc(Nc3ccc(Cl)c(CN4CCCC4)n3)ncc2s1 [Example 60]	–	–	IC50 [1, 5]: > 5 µM; IC50 (HPK1; [6]): < 0.1 µM
Cc1cc(Nc2cc3nc(-c4cccc(C(=O)N[C@H]5CCCOC5)c4)sc3cn2)nc(N2C[C@@H]3C[C@H]2CN3CCO)n1 [Example 541]	0.1 to 1	< 0.1	–
CS(=O)(=O)c1cccc(-c2nc3cc(Nc4cccc(N5C[C@@H]6C[C@H]5CN6)n4)ncc3s2)c1 [Example 141, 6-[(1S,4S)-2,5-Diazabicyclo[2.2.1]heptan-2-yl]-N-[2-(3-methanesulfonylphenyl)-[1,3]thiazolo[5,4-c]pyridin-6-yl]pyridin-2-amine]	–	–	IC50 [1, 5]: 0.1 to 1 µM; IC50 (HPK1; [6]): < 0.1 µM
CCN(C)C(=O)c1cccc(-c2nc3cc(Nc4cc(C)nc(N5C[C@@H]6C[C@H]5CN6CCO)n4)ncc3s2)c1 [Example 505]	< 0.1	< 0.1	–
CCN1C[C@@H]2C[C@H]1CN2c1nc(C)cc(Nc2cc3nc(-c4cccc(COC5CC5)c4)sc3cn2)n1 [Example 567]	0.1 to 1	< 0.1	–
CC(c1nc(Nc2cc3nc(-c4c(F)cccc4F)sc3cn2)ccc1N1CCOCC1)N(C)C (centres unmarked) [Example 277, N-[2-(2,6-Difluorophenyl)-[1,3]thiazolo[5,4-c]pyridin-6-yl]-6-[1-(dimethylamino)ethyl]-5-(morpholin-4-yl)pyridin-2-amine]	–	–	IC50 [1, 5]: 1 to 5 µM; IC50 (HPK1; [6]): < 0.1 µM
Cc1cc(Nc2cc3nc(-c4cnn(CC5CC5)c4)sc3cn2)nc(N2C[C@@H]3C[C@H]2CN3CCO)c1 [Example 348]	< 0.1	< 0.1	–
CCN1C[C@@H]2C[C@H]1CN2c1nc(C)cc(Nc2cc3nc(-c4ccnc(N5CCOC[C@H]5C(C)C)c4)sc3cn2)n1 [Example 474]	< 0.1	< 0.1	–
CCN1C[C@@H]2C[C@H]1CN2c1nc(C)cc(Nc2cc3nc(-c4cccc(C(=O)N5CCC(F)CC5)c4)sc3cn2)n1 [Example 538]	< 0.1	< 0.1	–
Cc1cc(Nc2cc3nc(-c4cccc(C(=O)N5CCCCC5)c4)sc3cn2)nc(N2C[C@@H]3C[C@H]2CN3CCO)n1 [Example 352]	< 0.1	< 0.1	–

Continued, in another order:

IC50 [1, 3] [µM]	IC50 (HPK1; [4]) [µM]	SMILES	also measured
0.1 to 1	< 0.1	Cc1cc(Nc2cc3nc(-c4cnn(CC(F)F)c4)sc3cn2)nc(N2C[C@@H]3C[C@H]2CN3C)n1 [Example 375]	–
5 to 25	< 0.1	Cc1cc(Nc2cc3nc(-c4cccc5c4CN(C)C5=O)sc3cn2)nc(N2C[C@@H]3C[C@H]2CN3C)n1 [Example 400]	–
1 to 5	0.1 to 1	CC(=O)N1CCc2c(cccc2-c2nc3cc(Nc4cc(C)nc(N5C[C@@H]6C[C@H]5CN6C)n4)ncc3s2)C1 [Example 389]	–
0.1 to 1	0.1 to 1	Cc1cc(Nc2cc3nc(-c4cccc(CC(=O)N(C)C)c4)sc3cn2)nc(N2C[C@@H]3C[C@H]2CN3C)n1 [Example 395]	–
0.1 to 1	–	CNS(=O)(=O)c1cccc(-c2nc3cc(Nc4cncc(N5C[C@@H]6C[C@H]5CN6C)n4)ncc3s2)c1 [Example 416]	IC50 (HPK1; [2]): < 0.1 µM
0.1 to 1	< 0.1	Cc1cc(Nc2cc3nc(-c4cccc(NC(=O)C5CC5)c4)sc3cn2)nc(N2C[C@@H]3C[C@H]2CN3C)n1 [Example 392]	–
1 to 5	< 0.1	Cc1cc(Nc2cc3nc(-c4cccc(C(N)=O)c4)sc3cn2)nc(N2C[C@@H]3C[C@H]2CN3CCO)n1 [Example 553]	–
0.1 to 1	< 0.1	CC(=O)Nc1cccc(-c2nc3cc(Nc4cc(C)nc(N5C[C@@H]6C[C@H]5CN6C)n4)ncc3s2)c1 [Example 423]	–
0.1 to 1	< 0.1	CN1C[C@@H]2C[C@H]1CN2c1cncc(Nc2cc3nc(-c4cccc(NS(C)(=O)=O)c4)sc3cn2)n1 [Example 412]	IC50 (HPK1; [2]): < 0.1 µM
0.1 to 1	< 0.1	CNC(=O)c1cccc(-c2nc3cc(Nc4cc(C)nc(N5C[C@@H]6C[C@H]5CN6CCO)n4)ncc3s2)c1 [Example 549]	–
